Patent publication EP0314302A2, “Herbicidal o-carbomethoxy-sulfonylureas” (E.I. DU PONT DE NEMOURS AND COMPANY, priority 1987, dated 1989)

Key:
Aegilops cylindrica = assay: Test 1 greenhouse, preemergence; format: in vivo; settings: 21 days, scale 0-100
Description: (§1) Seeds of Bromus tectorum, Kochia scoparia, Salsoa kali, Avena fatua, Convolvulus arvensis, Secale cereale, Setaria viridis and Triticum aestivum were placed in 26-cm plastic pans containing a pasteurized sandy loam soil (pH 6.5, 1% organic matter). Plantings were maintained in the greenhouse for 18-28 days at which time the postemergence treatments were applied using a nonphytotoxic solvent as the carrier for the herbicide. The preemergence segment of the test was seeded immediately before herbicide application using Bromus tectorum, Kochia scoparia, Polygonum convolvulus, Salsoa kali, Avena fatua, Convolvulus arvensis, Secale cereale, Setaria viridis, Aegilops cylindrica, Amaranthus retroflexus, Chenopodium album, Hordeum vulgare, Triticum aestivum, Sorghum bicolor, and Zea mays. All treatments were maintained in the greenhouse for an additional 21 days at which time visual assessment of weed control was determined using a scale of 0 to 100 for each species where 0 represented no control and 100 represented complete control.

Amaranthus retroflexus = assay: Test 1 greenhouse, preemergence; format: in vivo; settings: 21 days, scale 0-100
Description: as §1

Chenopodium album = assay: Test 1 greenhouse, preemergence; format: in vivo; settings: 21 days, scale 0-100
Description: as §1

Convolvulus arvensis = assay: Test 1 greenhouse, preemergence; format: in vivo; settings: 21 days, scale 0-100
Description: as §1

Hordeum vulgare = assay: Test 1 greenhouse, preemergence; format: in vivo; settings: 21 days, scale 0-100
Description: as §1

Kochia scoparia = assay: Test 1 greenhouse, preemergence; format: in vivo; settings: 21 days, scale 0-100
Description: as §1

Polygonum convolvulus = assay: Test 1 greenhouse, preemergence; format: in vivo; settings: 21 days, scale 0-100
Description: as §1

Salsoa kali = assay: Test 1 greenhouse, preemergence; format: in vivo; settings: 21 days, scale 0-100
Description: as §1

Secale cereale = assay: Test 1 greenhouse, preemergence; format: in vivo; settings: 21 days, scale 0-100
Description: as §1

Setaria viridis = assay: Test 1 greenhouse, preemergence; format: in vivo; settings: 21 days, scale 0-100
Description: as §1

Sorghum bicolor = assay: Test 1 greenhouse, preemergence; format: in vivo; settings: 21 days, scale 0-100
Description: as §1

Triticum aestivum = assay: Test 1 greenhouse, preemergence; format: in vivo; settings: 21 days, scale 0-100
Description: as §1

Zea mays = assay: Test 1 greenhouse, preemergence; format: in vivo; settings: 21 days, scale 0-100
Description: as §1

Elephantgrass = assay: Test 9 postemergence; format: in vivo, Pennisetum purpureum; settings: scale 0-100
Description: Plastic windowsill pots containing planting medium were seeded with bahiagrass, bindweed (Convolvulus spp), guinea grass (Panicum maximum), large crabgrass (Digitaria sanguinalis) and pigweed (Amaranthus spp). Individual 15-cm plastic pots contained sandbur (Cenchrus echinatus), Mikania cordata, Boston fern (Nephrolepis exalata), quackgrass (Agropyron repens), elephantgrass (Pennisetum purpureum) and sowthistle (Sonchus spp) plants.
Plants were treated postemergence with Compound I formulated in a non-phytotoxic solvent. Plants were visually rated 22 days after treatment (DAT). Injury and weed control ratings were based on the scale of 0 to 100 where 0 = no effect, 20 = minimal control and 100 = complete control.

Guineagrass = assay: Test 11 citrus pots, postemergence to the weeds; format: in vivo, Panicum maximum; settings: Postemergence 32 g/ha, 0.25% X-77 surfactant, scale 0-100
Description: (§2) Budded citrus seedlings were planted in 30-liter plastic pots which were also seeded with sandbur, guineagrass, narrowleaf panicum, common ragweed, yellow nutsedge, purple nutsedge and bindweed. Compound I was applied preemergence and postemergence to the weeds. Treatments were sprayed to simulate the trunk-to-trunk herbicide application method used in some citrus groves. The compound was also applied postemergence to weeds grown in windowsill flats. The flats were filled with planting medium and seeded with morningglory (Ipomoea spp.). purple nutsedge (Cyperus rotundus), pigweed (Amaranthus spp.), bindweed (Convolvulus spp.), narrowleaf panicum (Panicum maximum), common ragweed (Ambrosia artemisiifolia), sandbur (Cenchrus echinatus), itchgrass (Rottboellia exaltata), johnsongrass (Sorghum halepense), guineagrass (Panicum maximum), smooth crabgrass (Digitaria ischaemum), broadleaf signalgrass (Brachiaria platyphylla), bermudagrass (Cynodon dactylon), goosegrass (Eleusine indica), large crabgrass (Digitaria sanguinalis) and yellow nutsedge (Cyperus esculentus).
(§3) The compound was formulated and sprayed with 0.25% X-77 surfactant in water. Plants were visually rated 21 and 29 days after treatment and compared with appropriate controls. Injury ratings were based on the scale of 0 to 100, where 0 indicates no effect, 20 indicates minimum effect and 100 indicates complete control. […]

Narrowleaf panicum = assay: Test 11 citrus pots, postemergence to the weeds; format: in vivo, Panicum maximum; settings: Postemergence 32 g/ha, 0.25% X-77 surfactant, scale 0-100
Description: as §2, §3

Bindweed = assay: Test 11 windowsill flats, postemergence; format: in vivo, Convolvulus spp.; settings: Postemergence 32 g/ha, 0.25% X-77 surfactant, scale 0-100
Description: as §2, §3

In the case of `COC(=O)c1cccnc1S(=O)(=O)NC(=O)Nc1nc(OC)cc(OC)n1` [Compound I, 2-[[(4,6-dimethoxypyrimidin-2-yl)aminocarbonyl]aminosulfonyl]-3-pyridinecarboxylic acid, methyl ester], the “visual assessment of weed control” value (Aegilops cylindrica; 4 g/ha) is reported as 30, the “visual assessment of weed control” value (Aegilops cylindrica; 8 g/ha) is reported as 50 and the “visual assessment of weed control” value (Aegilops cylindrica; 16 g/ha) is reported as 60. The “visual assessment of weed control” value (Aegilops cylindrica; 32 g/ha) was 80, the “visual assessment of weed control” value (Aegilops cylindrica; 64 g/ha) was 100 and the “visual assessment of weed control” value (Aegilops cylindrica; 125 g/ha) was 100. For the same compound, the “visual assessment of weed control” value (Amaranthus retroflexus; 4 g/ha) was 70, the “visual assessment of weed control” value (Amaranthus retroflexus; 8 g/ha) was 90 and the “visual assessment of weed control” value (Amaranthus retroflexus; 16 g/ha) was 90. For the same compound, the “visual assessment of weed control” value (Amaranthus retroflexus; 32 g/ha) was 100, the “visual assessment of weed control” value (Amaranthus retroflexus; 64 g/ha) was 100 and the “visual assessment of weed control” value (Amaranthus retroflexus; 125 g/ha) was 100. For the same compound, the “visual assessment of weed control” value (Chenopodium album; 4 g/ha) was 60, the “visual assessment of weed control” value (Chenopodium album; 8 g/ha) was 90 and the “visual assessment of weed control” value (Chenopodium album; 16 g/ha) was 90. For the same compound, the “visual assessment of weed control” value (Chenopodium album; 32 g/ha) was 100, the “visual assessment of weed control” value (Chenopodium album; 64 g/ha) was 100 and the “visual assessment of weed control” value (Chenopodium album; 125 g/ha) was 100. The “visual assessment of weed control” value (Convolvulus arvensis; 4 g/ha) was 20, the “visual assessment of weed control” value (Convolvulus arvensis; 8 g/ha) was 40 and the “visual assessment of weed control” value (Convolvulus arvensis; 16 g/ha) was 90. The “visual assessment of weed control” value (Convolvulus arvensis; 32 g/ha) was 90, the “visual assessment of weed control” value (Convolvulus arvensis; 64 g/ha) was 100 and the “visual assessment of weed control” value (Convolvulus arvensis; 125 g/ha) was 100. The “visual assessment of weed control” value (Hordeum vulgare; 4 g/ha) was 50, the “visual assessment of weed control” value (Hordeum vulgare; 8 g/ha) was 60 and the “visual assessment of weed control” value (Hordeum vulgare; 16 g/ha) was 70. The “visual assessment of weed control” value (Hordeum vulgare; 32 g/ha) was 80, the “visual assessment of weed control” value (Hordeum vulgare; 64 g/ha) was 80 and the “visual assessment of weed control” value (Hordeum vulgare; 125 g/ha) was 90. The “visual assessment of weed control” value (Kochia scoparia; 4 g/ha) was 80, the “visual assessment of weed control” value (Kochia scoparia; 8 g/ha) was 80 and the “visual assessment of weed control” value (Kochia scoparia; 16 g/ha) was 100. For the same compound, the “visual assessment of weed control” value (Kochia scoparia; 32 g/ha) was 100, the “visual assessment of weed control” value (Kochia scoparia; 64 g/ha) was 100 and the “visual assessment of weed control” value (Kochia scoparia; 125 g/ha) was 100. For the same compound, the “visual assessment of weed control” value (Polygonum convolvulus; 4 g/ha) was 20, the “visual assessment of weed control” value (Polygonum convolvulus; 8 g/ha) was 20 and the “visual assessment of weed control” value (Polygonum convolvulus; 16 g/ha) was 80. For the same compound, the “visual assessment of weed control” value (Polygonum convolvulus; 32 g/ha) was 80, the “visual assessment of weed control” value (Polygonum convolvulus; 64 g/ha) was 80 and the “visual assessment of weed control” value (Polygonum convolvulus; 125 g/ha) was 100. For the same compound, the “visual assessment of weed control” value (Salsoa kali; 4 g/ha) was 50, the “visual assessment of weed control” value (Salsoa kali; 8 g/ha) was 70 and the “visual assessment of weed control” value (Salsoa kali; 16 g/ha) was 70. The “visual assessment of weed control” value (Salsoa kali; 32 g/ha) was 80, the “visual assessment of weed control” value (Salsoa kali; 64 g/ha) was 100 and the “visual assessment of weed control” value (Salsoa kali; 125 g/ha) was 100. For the same compound, the “visual assessment of weed control” value (Secale cereale; 4 g/ha) was 20, the “visual assessment of weed control” value (Secale cereale; 8 g/ha) was 30 and the “visual assessment of weed control” value (Secale cereale; 16 g/ha) was 40. For the same compound, the “visual assessment of weed control” value (Secale cereale; 32 g/ha) was 70, the “visual assessment of weed control” value (Secale cereale; 64 g/ha) was 80 and the “visual assessment of weed control” value (Secale cereale; 125 g/ha) was 90. For the same compound, the “visual assessment of weed control” value (Setaria viridis; 4 g/ha) was 20, the “visual assessment of weed control” value (Setaria viridis; 8 g/ha) was 30 and the “visual assessment of weed control” value (Setaria viridis; 16 g/ha) was 50. For the same compound, the “visual assessment of weed control” value (Setaria viridis; 32 g/ha) was 70, the “visual assessment of weed control” value (Setaria viridis; 64 g/ha) was 90 and the “visual assessment of weed control” value (Setaria viridis; 125 g/ha) was 100. For the same compound, the “visual assessment of weed control” value (Sorghum bicolor; 4 g/ha) was 90, the “visual assessment of weed control” value (Sorghum bicolor; 8 g/ha) was 100 and the “visual assessment of weed control” value (Sorghum bicolor; 16 g/ha) was 100. For the same compound, the “visual assessment of weed control” value (Sorghum bicolor; 32 g/ha) was 100, the “visual assessment of weed control” value (Sorghum bicolor; 64 g/ha) was 100 and the “visual assessment of weed control” value (Sorghum bicolor; 125 g/ha) was 100. The “visual assessment of weed control” value (Triticum aestivum; 4 g/ha) was 70, the “visual assessment of weed control” value (Triticum aestivum; 8 g/ha) was 100 and the “visual assessment of weed control” value (Triticum aestivum; 16 g/ha) was 100. For the same compound, the “visual assessment of weed control” value (Triticum aestivum; 32 g/ha) was 100, the “visual assessment of weed control” value (Triticum aestivum; 64 g/ha) was 100 and the “visual assessment of weed control” value (Triticum aestivum; 125 g/ha) was 100. The “visual assessment of weed control” value (Zea mays; 4 g/ha) was 40, the “visual assessment of weed control” value (Zea mays; 8 g/ha) was 50 and the “visual assessment of weed control” value (Zea mays; 16 g/ha) was 90. The “visual assessment of weed control” value (Zea mays; 32 g/ha) was 90, the “visual assessment of weed control” value (Zea mays; 64 g/ha) was 90 and the “visual assessment of weed control” value (Zea mays; 125 g/ha) was 100. The “Plant Injury Rating 22 DAT” value (Elephantgrass; 8 g/ha) was 0, the “Plant Injury Rating 22 DAT” value (Elephantgrass; 16 g/ha) was 50 and the “Plant Injury Rating 22 DAT” value (Elephantgrass; 32 g/ha) was 70. For the same compound, the Injury ratings (Guineagrass) was 100, the Injury ratings (Narrowleaf panicum) was 90 and the Injury ratings (Bindweed) was 100.
